Measured values reported in ChEMBL document CHEMBL4715921, “Novel Quinazolinyl Compounds as Endoribonuclease Inositol Requiring Enzyme 1 (IRE 1α) Inhibitors for Treating Cancer” (ACS Med Chem Lett, 2021).

Experiment: Inhibition of His-tagged IRE1alpha D688N mutant KR domain (G547 to L997 reidues) (unknown origin) expressed in Sf9 insect cells measured after 1 hr by TR-FRET assay
Design: species or system Homo sapiens

SMILES | IC50
CCc1cc(-c2ccc(NS(=O)(=O)CCC(F)(F)F)c(F)c2)cc2cnc(N[C@H]3CC[C@H](N(C)C)CC3)nc12 | 0.25 nM
CCc1cc(-c2ccc(NS(=O)(=O)Cc3ccccc3)c(F)c2)cc2cnc(N[C@@H]3CNC[C@@H](F)C3)nc12 | 0.18 nM
O=S(=O)(Cc1ccccc1)Nc1ccc(-c2ccc3nc(N[C@H]4CCCNC4)ncc3c2)c(F)c1F | 0.57 nM
O=S(=O)(Cc1ccccc1)Nc1c(F)cc(-c2ccc3nc(N[C@H]4CCCNC4)ncc3c2)cc1F | 0.53 nM
O=S(=O)(Cc1ccccc1)Nc1c(F)cc(-c2ccc3nc(N[C@@H]4CNC[C@@H](F)C4)ncc3c2)cc1F | 0.51 nM
CCc1cc(-c2ccc(NS(=O)(=O)Cc3ccccc3)cc2F)cc2cnc(N[C@@H]3CNC[C@@H](F)C3)nc12 | 0.46 nM
